Data as given in US20240024647A1, “MUCOSA PERFORATION” (LTS LOHMANN THERAPIE-SYSTEME AG, priority 2020, published 2024).
Counter-ions that a name gives are not always drawn.

Legend:
[1] = In vitro permeation by Franz diffusion cells, dissolving microneedle system loaded with active ingredient, applied into the mucosa versus in reverse
Method: The following test series with the selected active ingredients in each case were performed within the scope of a typical in vitro permeation by means of Franz diffusion cells (volume 10 mL) at 37° C. The used acceptor medium was replaced completely for a new one at predetermined replacement times, and the content of permeated active ingredient amount in these acceptor solutions was determined by means of HPLC. […]
For preparation, sumatriptan succinate, polyvinylpyrrolidone, Polysorbate 80 and glycerol were dissolved in water with the proportions 5:20:1:1:73 (in each case in wt. %). The finished solution was poured into negative needle moulds made of silicone, the surface of which was coated with a thin platinum layer by vacuum metallisation. The negative moulds were then dried overnight at room temperature. The dried microneedle systems were carefully pressed out from the dies after the drying process and stored under exclusion of moisture until their further use. The active ingredient content was 4.25 mg sumatriptan succinate per 0.785 cm^2 of system or 5.41 mg/cm^2.
The length of the microneedles of the used microneedle system was 500 μm. A total of 600 microneedles were applied to an area of 0.785 cm^2 (microneedle density=764 per cm^2).
(§1) Dermatomised skin from the oesophagus of a pig with a layer thickness of 400 μm was used as skin model.
The microneedle system remained in the mucosa throughout the permeation period, the cell head additionally also having been filled with lead balls in order to simulate the in vivo contact pressure (for example between mandible and oral mucosa) in the oral cavity. As protection for the dissolving microneedle system, a separation film based on siliconised PET (polyethylene terephthalate) was also introduced in between in front of the lead balls.

[2] = Solubility of the active ingredient in the acceptor medium; assay type: physicochemical
[3] = In vitro permeation by Franz diffusion cells, mucosa with versus without steel microneedle system (AdminPatch)
Method: The following test series with the selected active ingredients in each case were performed within the scope of a typical in vitro permeation by means of Franz diffusion cells (volume 10 mL) at 37° C. The used acceptor medium was replaced completely for a new one at predetermined replacement times, and the content of permeated active ingredient amount in these acceptor solutions was determined by means of HPLC.
The contact pressure was 3 N by thumb pressure, monitored by means of a Roberval balance. The pressing time was 10 sec.
A total of 187 microneedles were applied to an area of 0.785 cm^2 (microneedle density=238 per cm^2).
For Example 4, the donor solution was injected (900 μl) onto or into the used dentistry tamponade (length and diameter 1 cm each). The microneedle system was fixed to the underside of the tamponade and was applied to the mucosa surface perpendicularly through the head of the Franz cells and fixed in a defined position by a suitable stopper and with moderate pressure.
Phosphate buffer (pH 5.5) was used as acceptor medium and an addition of 2 wt. % Tween® 20 was used as organic solvent to maintain “sink” conditions. (sink=current solubility at time t of an active ingredient in an acceptor medium of at most 30% of its saturation solubility in this acceptor medium)
A saturated solution of riociguat in clove oil (Primavera® clove bud organic essential oil, Oy-Mittelberg, Germany) was used as donor solution.
as §1
0.025 molar HEPES buffer (pH 7.4) was used as acceptor medium.
Phosphate buffer (pH 5.5) was used as acceptor medium and an addition of 2 wt. % Tween® 20 was used as organic solvent to maintain “sink” conditions. […]
The surface of the mucosa was treated with the “AdminPatch™” microneedle system (needle length 600 μm) from the company “nanobioSciences” (CA, USA) made of steel with a contact pressure of 3 N by thumb pressure, monitored by means of a Roberval balance for 10 sec. […]

[4] = dissolving microneedle system loaded with sumatriptan base, acceptor phosphate buffer pH 6.0 + 2 wt. % Tween 20, FIG. 9

CNS(=O)(=O)Cc1ccc2[nH]cc(CCN(C)C)c2c1 [sumatriptan succinate]
first permeation value after 10 min, factor higher in comparison to the comparative example ([1]; pig, 10 min, pH 7.4): approximately 4 | active ingredient flux with the microneedle system applied in the mucosa, factor higher in comparison to the system without penetration into the mucosa ([1]; pig, pH 7.4): 2.0 | solubility in acceptor medium ([2]; phosphate buffer (pH 7.4) without further additives): very easily dissolved

CCCCCc1cc(O)c2c(c1)OC(C)(C)[C@@H]1CCC(C)=C[C@@H]21 [tetrahydrocannabinol]
time after which permeated active ingredient could be detected without pretreatment ([3]; saturated tetrahydrocannabinol solution in clove oil, acceptor phosphate buffer pH 5.5 + 2 wt. % Tween 20, FIG. 3): 3 h | permeated active ingredient without pretreatment, factor lower in comparison to pretreated mucosa ([3]; saturated tetrahydrocannabinol solution in clove oil, value after 3 hours, FIG. 3): 5

CN1CCc2cccc3c2[C@H]1Cc1ccc(O)c(O)c1-3 [apomorphine hydrochloride]
solubility in acceptor medium ([2]; phosphate buffer (pH 6.8) with 0.1 wt. % L-ascorbic acid): very easily dissolved

CNS(=O)(=O)Cc1ccc2[nH]cc(CCN(C)C)c2c1 [sumatriptan base]
active ingredient flux in the comparative example (system applied in reverse, not penetrating into the mucosa) [1, 4]: not possible to measure an active ingredient flux | active ingredient flux with the microneedle system applied in the mucosa [1, 4]: high active ingredient flux could be observed | solubility in acceptor medium ([2]; phosphate buffer (pH 6.0) with 2 wt. % Tween 20): very easily dissolved

C=C(C)[C@@H]1CCC(C)=C[C@H]1c1c(O)cc(CCCCC)cc1O [cannabidiol]
active ingredient flux after pretreatment with a microneedle system, factor higher in comparison to administration without pretreatment ([3]; saturated cannabidiol solution in clove oil, dentistry tamponade with microneedle system, acceptor phosphate buffer pH 5.5 + 2 wt. % Tween 20, FIG. 4): 2.0

CC(=O)O[C@]1(C(C)=O)CC[C@H]2[C@@H]3CCC4=CC(=O)CCC4=C3[C@@H](c3ccc(N(C)C)cc3)C[C@@]21C [ulipristal acetate]
solubility in acceptor medium ([2]; phosphate buffer (pH 7.4) with 2 wt. % Tween 20): very easily dissolved
